Experimental data taken from US12171230B2, “Herbicidal compositions” (Bayer Aktiengesellschaft, priority 2018, dated 2024).

Legend:
Type in all cases: in vivo
Galium aparine = assay: Post-emergence herbicidal action against Galium aparine
Protocol: (§1) When the observed efficacies exceed the formal sum total of the values of the tests with individual applications, they also exceed the expected value according to Colby, which is calculated using the formula below and is likewise regarded as an indication of synergism (cf. S. R. Colby; in Weeds 15 (1967) p. 20 to 22): E^C=A+B−([…])
(§2) Here: • A=efficacy of the active compound (A) in % at an application rate of a g a.i./ha; • B=efficacy of the active compound (B) in % at an application rate of b g a.i./ha; • E^C=expected value of the effect of the combination (A)+(B) in % at the combined application rate a+b g a.i./ha.
(§3) Seeds or rhizome pieces of mono- and dicotyledonous weeds are placed in sandy loam in pots, covered with soil and grown in a greenhouse under good growth conditions (temperature, air humidity, water supply). Three weeks after sowing, the test plants were treated at the three-leaf stage with the compositions according to the invention. The compositions according to the invention formulated as spray powders or as emulsion concentrates were sprayed onto the green plant parts in various dosages with an application rate of 300 to 800 l/ha of water (equivalent). After the test plants have been left to stand in the greenhouse under optimal growth conditions for about 3 to 4 weeks, the action of the preparations is scored visually in comparison to untreated controls. The compositions according to the invention also have good post-emergence herbicidal activity against a broad spectrum of economically important gramineous and broadleaf weeds.

[1] = test system: Lolium rigidum (resistant biotype); assay: Post-emergence herbicidal action against Lolium rigidum (resistant biotype)
Excerpt: (§4) The following abbreviations are used in the description and the tables that follow: • g of a.i./ha=grams of active substance (active ingredient) (=100% active compound) per hectare; • The sum total of the effects of the individual applications is reported under E^A; • expected values according to Colby are each reported under E^C.
(§5) The rating period is reported in days after application (DAT).

Phalaris minor = assay: Post-emergence herbicidal action against Phalaris minor
Excerpt: as §4, §5

Matricaria inodora = assay: Post-emergence herbicidal action against Matricaria inodora
Alopecurus myosuroides = assay: Post-emergence herbicidal action against Alopecurus myosuroides
Excerpt: as §4, §5

Centaurea cyano = assay: Post-emergence herbicidal action against Centaurea cyano
Protocol: Seeds or rhizome pieces of mono- and dicotyledonous weeds are placed in sandy loam in pots, covered with soil and grown in a greenhouse under good growth conditions (temperature, air humidity, water supply). Three weeks after sowing, the test plants were treated at the three-leaf stage with the compositions according to the invention. The compositions according to the invention formulated as spray powders or as emulsion concentrates were sprayed onto the green plant parts in various dosages with an application rate of 300 to 800 l/ha of water (equivalent).

Viola tricolor = assay: Post-emergence herbicidal action against Viola tricolor
Excerpt: as §4, §5

Bromus sterilis = assay: Post-emergence herbicidal action against Bromus sterilis
Excerpt: as §4, §5

Veronica hederifolia = assay: Post-emergence herbicidal action against Veronica hederifolia
Excerpt: as §4, §5

Poa annua = assay: Post-emergence herbicidal action against Poa annua
Protocol: as §1, §2, §3

Lamium purpureum = assay: Post-emergence herbicidal action against Lamium purpureum; details: 100 g of a.i./ha
Protocol: as §1, §2, §3

Lolium rigidum = assay: Post-emergence herbicidal action against Lolium rigidum
Excerpt: as §4, §5

## CC(C)N(C(=O)COc1nnc(C(F)(F)F)s1)c1ccc(F)cc1 [(B2.28) Flufenacet]
Galium aparine; 33 g of a.i./ha
  Herbicidal action 28 DAT against Galium aparine: 60%
Galium aparine; 100 g of a.i./ha
  Herbicidal action 28 DAT against Galium aparine: 65%
[1]; 100 g of a.i./ha
  Herbicidal action 14 DAT against Lolium rigidum (resistant biotype): 20%
  Herbicidal action 28 DAT against Lolium rigidum (resistant biotype): 10%
[1]; 300 g of a.i./ha
  Herbicidal action 14 DAT against Lolium rigidum (resistant biotype): 10%
  Herbicidal action 28 DAT against Lolium rigidum (resistant biotype): 20%
Phalaris minor; 33 g of a.i./ha
  Herbicidal action 28 DAT against Phalaris minor: 0%
Phalaris minor; 100 g of a.i./ha
  Herbicidal action 28 DAT against Phalaris minor: 40%
Phalaris minor; 300 g of a.i./ha
  Herbicidal action 28 DAT against Phalaris minor: 85%
Matricaria inodora; 33 g of a.i./ha
  Herbicidal action 14 DAT against Matricaria inodora: 0%
Alopecurus myosuroides; 100 g of a.i./ha
  Herbicidal action 14 DAT against Alopecurus myosuroides: 70%
Alopecurus myosuroides; 300 g of a.i./ha
  Herbicidal action 28 DAT against Alopecurus myosuroides: 75%
Centaurea cyano; 100 g of a.i./ha
  Herbicidal action 28 DAT against Centaurea cyanus: 20%
Centaurea cyano; 300 g of a.i./ha
  Herbicidal action 14 DAT against Centaurea cyanus: 30%
Viola tricolor; 33 g of a.i./ha
  Herbicidal action 14 DAT against Viola tricolor: 20%
  Herbicidal action 28 DAT against Viola tricolor: 20%
Viola tricolor; 100 g of a.i./ha
  Herbicidal action 14 DAT against Viola tricolor: 50%
  Herbicidal action 28 DAT against Viola tricolor: 20%
Viola tricolor; 300 g of a.i./ha
  Herbicidal action 28 DAT against Viola tricolor: 35%
Bromus sterilis; 33 g of a.i./ha
  Herbicidal action 14 DAT against Bromus sterilis: 35%
Bromus sterilis; 100 g of a.i./ha
  Herbicidal action 14 DAT against Bromus sterilis: 75%
  Herbicidal action 28 DAT against Bromus sterilis: 25%
Bromus sterilis; 300 g of a.i./ha
  Herbicidal action 28 DAT against Bromus sterilis: 65%
Veronica hederifolia; 33 g of a.i./ha
  Herbicidal action 14 DAT against Veronica hederifolia: 35%
Veronica hederifolia; 100 g of a.i./ha
  Herbicidal action 14 DAT against Veronica hederifolia: 40%
Poa annua; 33 g of a.i./ha
  Herbicidal action 28 DAT against Poa annua L.: 10%
Poa annua; 100 g of a.i./ha
  Herbicidal action 28 DAT against Poa annua L.: 70%
Poa annua; 300 g of a.i./ha
  Herbicidal action 28 DAT against Poa annua L.: 65%
Lamium purpureum
  Herbicidal action 14 DAT against Lamium purpureum L.: 40%
  Herbicidal action 28 DAT against Lamium purpureum L.: 20%
Lolium rigidum; 33 g of a.i./ha
  Herbicidal action 14 DAT against Lolium rigidum: 0%
Lolium rigidum; 100 g of a.i./ha
  Herbicidal action 14 DAT against Lolium rigidum: 35%
  Herbicidal action 28 DAT against Lolium rigidum: 20%
Lolium rigidum; 300 g of a.i./ha
  Herbicidal action 14 DAT against Lolium rigidum: 40%
  Herbicidal action 28 DAT against Lolium rigidum: 25%

## COc1cc(OC)nc(NC(=O)NS(=O)(=O)c2cc(NC=O)ccc2C(=O)N(C)C)n1 [(B2.31) Foramsulfuron]
Galium aparine; 1 g of a.i./ha
  Herbicidal action 28 DAT against Galium aparine: 0%
Galium aparine; 9 g of a.i./ha
  Herbicidal action 28 DAT against Galium aparine: 65%
[1]; 3 g of a.i./ha
  Herbicidal action 14 DAT against Lolium rigidum (resistant biotype): 15%
  Herbicidal action 28 DAT against Lolium rigidum (resistant biotype): 10%
[1]; 9 g of a.i./ha
  Herbicidal action 14 DAT against Lolium rigidum (resistant biotype): 15%
  Herbicidal action 28 DAT against Lolium rigidum (resistant biotype): 20%
Phalaris minor; 3 g of a.i./ha
  Herbicidal action 14 DAT against Phalaris minor: 85%
  Herbicidal action 28 DAT against Phalaris minor: 40%
Phalaris minor; 9 g of a.i./ha
  Herbicidal action 14 DAT against Phalaris minor: 80%
  Herbicidal action 28 DAT against Phalaris minor: 20%
Matricaria inodora; 1 g of a.i./ha
  Herbicidal action 14 DAT against Matricaria inodora: 70%
  Herbicidal action 28 DAT against Matricaria inodora: 30%
Alopecurus myosuroides; 1 g of a.i./ha
  Herbicidal action 14 DAT against Alopecurus myosuroides: 80%
  Herbicidal action 28 DAT against Alopecurus myosuroides: 40%
Alopecurus myosuroides; 3 g of a.i./ha
  Herbicidal action 28 DAT against Alopecurus myosuroides: 80%
Alopecurus myosuroides; 9 g of a.i./ha
  Herbicidal action 28 DAT against Alopecurus myosuroides: 85%
Viola tricolor; 1 g of a.i./ha
  Herbicidal action 28 DAT against Viola tricolor: 65%
Viola tricolor; 3 g of a.i./ha
  Herbicidal action 28 DAT against Viola tricolor: 80%
Bromus sterilis; 1 g of a.i./ha
  Herbicidal action 14 DAT against Bromus sterilis: 65%
Bromus sterilis; 3 g of a.i./ha
  Herbicidal action 14 DAT against Bromus sterilis: 85%
  Herbicidal action 28 DAT against Bromus sterilis: 25%
Bromus sterilis; 9 g of a.i./ha
  Herbicidal action 14 DAT against Bromus sterilis: 85%
  Herbicidal action 28 DAT against Bromus sterilis: 60%
Veronica hederifolia; 1 g of a.i./ha
  Herbicidal action 14 DAT against Veronica hederifolia: 80%
Poa annua; 1 g of a.i./ha
  Herbicidal action 28 DAT against Poa annua L.: 40%
Lolium rigidum; 3 g of a.i./ha
  Herbicidal action 28 DAT against Lolium rigidum: 35%
Lolium rigidum; 9 g of a.i./ha
  Herbicidal action 28 DAT against Lolium rigidum: 65%
